Laboratory results as given in publication PMC11843613, “Further Optimization of the mGlu1 PAM VU6024578/BI02982816: Discovery and Characterization of VU6033685” (ACS Chemical Neuroscience, 2025).
In brackets after ≈: the same amount, converted by molar mass. Where two headings read alike, the source gives them in different places.

Assays:
[1] = Plasma protein binding, equilibrium dialysis (human); assay type: in vitro ADME; conditions: pH 7.4, human plasma, read-out: fu plasma (h)
Method: page 13: at half log concentrations in DMSO were further diluted in assay buffer. The compounds or DMSO vehicle were added to cells and incubated for 2.5 min and an EC20 concentration of glutamate was added and incubated for 1 min. An ECmax concentration of glutamate was also added to cells that were incubated with DMSO vehicle to accurately calculate the EC20 calcium response. Data were normalized by subtracting the basal florescent peak before EC20 agonist addition from the maximal peak elicited by EC20 agonist and PAMs. Using GraphPad Prism 5.0, the concentration response curves were generated and the potencies of the mGlu1 PAMs were determined. DMPK Methods Plasma protein binding: The protein binding of each compound was determined in plasma via equilibrium dialysis employing RED Plates (ThermoFisher Scientific, Rochester, NY). Plasma was added to the 96 well plate containing test compound and mixed thoroughly for a final concentration of 5 µM. Subsequently, an aliquot of the plasma-compound mixture was transferred to the cis chamber (red) of the RED plate, with an phosphate buffer (25 mM, pH 7.4) in the trans chamber. The RED plate was sealed and incubated for 4 hours at 37°C with shaking. At completion, aliquots from each chamber were diluted 1:1 with either plasma (cis) or buffer (trans) and transferred to a new 96 well plate, at which time ice-cold acetonitrile containing internal standard (50 ng/mL carbamazepine) (2 volumes) was added to extract the matrices. The plate was centrifuged (3000 rcf, 10 min) and supernatants transferred and diluted 1:1 (supernatant: water) into a new 96 well plate, which was then sealed in preparation for LC/MS/MS analysis. Each compound was assayed in triplicate within the same 96-well plate. Fraction unbound was determined using the following equation F = Concbuffer u Conc plasma Intrinsic clearance: Human or rat hepatic microsomes (0.5 mg/mL) and 1 µM test compound were incubated in 100 mM potassium phosphate pH 7.4 buffer with 3 mM MgCl2 at 37°C with constant shaking. After a 5 min preincubation, the reaction was initiated by addition of NADPH (1 mM). At selected time intervals (0, 3, 7, 15, 25, and 45 min), aliquots were taken and subsequently placed into a 96-well plate containing cold acetonitrile with internal standard (50 ng/mL carbamazepine). Plates were then centrifuged at 3000 rcf (4° C) for 10 min, and the supernatant was transferred to a separate 96-well plate and diluted 1:1 with water for LC/MS/MS analysis. The in vitro half-life (T 1/2, min, Eq. 1), intrinsic clearance (CLint, mL/min/kg, Eq. 2) and subsequent predicted hepatic clearance (CLhep, mL/min/kg, Eq. 3) was determined S13

P-gp = target: T1, P-gp (Homo sapiens, UniProt P08183); assay: MDCK-MDR1 efflux and permeability; assay type: in vitro ADME; conditions: for Papp / efflux ratio: dog, MDCK-MDR1; for efflux ratio: read-out: P-gp, MDCK-MDR1 ER
T1 construct: expressed in transfected cells; host or cells: MDCK-MDR1

h and r mGlu2-4,6-8 = assay: mGlu subtype selectivity; assay type: cell-based, human, rat; conditions: Table 1
striatal DA release = assay: Electrically evoked striatal DA release in brain slices (fast scanning cyclic voltammetry); conditions: 10 μM PAM + 10 μM DHPG, mouse slices, 1 μM DHβE present
Method: into the home cage. The arena is then cleaned with 70% ethanol in between animals. The day of the test the animals are habituated to the dosing room for 2 hours. The animals were administered VU6024578 (1-10 mg/kg p.o.) or vehicle (10% Tween 80) and were placed back into their homecage for 60 min. The animals were then injected with MK-801 (0.075 mg/kg 1 ml/kg s.c.) and placed back in the homecage for 30 min. The animals are then placed into the arena with two identical familiar objects for ten minutes and then placed back into the home cage. The animals are then placed back into the arena with one of the familiar objects replaced with a novel object at 120 min after the familiar object exposure. The activity of the animals are recorded and the time spent exploring each of the objects is scored by a blinded observer. Recognition index is determined by subtracting […] divided by total time spent exploring.
Brain Slice Preparation and Fast Scanning Cyclic Voltammetry: […]
Electrically-evoked dopamine overflow was monitored with carbon fiber electrodes as previously reported (Foster et al. 2014). […]

[2] = Solubility in FASSGF and FASSIF; assay type: physicochemical
Kinetic solubility = assay type: physicochemical; conditions: kinetic from dmso stock
[3] = Plasma protein binding (dog); assay type: in vitro ADME; conditions: pH 7.4, read-out: fu plasma (d)
Method: (§1) page 13: at half log concentrations in DMSO were further diluted in assay buffer. The compounds or DMSO vehicle were added to cells and incubated for 2.5 min and an EC20 concentration of glutamate was added and incubated for 1 min. An ECmax concentration of glutamate was also added to cells that were incubated with DMSO vehicle to accurately calculate the EC20 calcium response. Data were normalized by subtracting the basal florescent peak before EC20 agonist addition from the maximal peak elicited by EC20 agonist and PAMs. Using GraphPad Prism 5.0, the concentration response curves were generated and the potencies of the mGlu1 PAMs were determined. DMPK Methods Plasma protein binding: The protein binding of each compound was determined in plasma via equilibrium dialysis employing RED Plates (ThermoFisher Scientific, Rochester, NY). Plasma was added to the 96 well plate containing test compound and mixed thoroughly for a final concentration of 5 µM. Subsequently, an aliquot of the plasma-compound mixture was transferred to the cis chamber (red) of the RED plate, with an phosphate buffer (25 mM, pH 7.4) in the trans chamber. The RED plate was sealed and incubated for 4 hours at 37°C with shaking. […] The in vitro half-life (T 1/2, min, Eq. 1), intrinsic clearance (CLint, mL/min/kg, Eq. 2) and subsequent predicted hepatic clearance (CLhep, mL/min/kg, Eq. 3) was determined S13

[4] = Plasma protein binding (c); assay type: in vitro ADME, c (presumably cynomolgus); conditions: cynomolgus monkey, pH 7.4, read-out: fu plasma (c)
Method: as §1

[5] = Single IV bolus PK and tolerability in male beagle dogs; assay type: in vivo; conditions: male beagle dog, 0.5 mg/kg IV bolus
dog mGlu1 = dog mGlu1 (Canis lupus familiaris, UniProt A0A8I3NTE8); assay: mGlu1 PAM functional assay (dog); assay type: cell-based
h mGlu5 = h mGlu5 (Homo sapiens, UniProt P41594); assay: mGlu5 PAM functional assay; assay type: cell-based
Sequence of h mGlu5 (P41594 21-1212): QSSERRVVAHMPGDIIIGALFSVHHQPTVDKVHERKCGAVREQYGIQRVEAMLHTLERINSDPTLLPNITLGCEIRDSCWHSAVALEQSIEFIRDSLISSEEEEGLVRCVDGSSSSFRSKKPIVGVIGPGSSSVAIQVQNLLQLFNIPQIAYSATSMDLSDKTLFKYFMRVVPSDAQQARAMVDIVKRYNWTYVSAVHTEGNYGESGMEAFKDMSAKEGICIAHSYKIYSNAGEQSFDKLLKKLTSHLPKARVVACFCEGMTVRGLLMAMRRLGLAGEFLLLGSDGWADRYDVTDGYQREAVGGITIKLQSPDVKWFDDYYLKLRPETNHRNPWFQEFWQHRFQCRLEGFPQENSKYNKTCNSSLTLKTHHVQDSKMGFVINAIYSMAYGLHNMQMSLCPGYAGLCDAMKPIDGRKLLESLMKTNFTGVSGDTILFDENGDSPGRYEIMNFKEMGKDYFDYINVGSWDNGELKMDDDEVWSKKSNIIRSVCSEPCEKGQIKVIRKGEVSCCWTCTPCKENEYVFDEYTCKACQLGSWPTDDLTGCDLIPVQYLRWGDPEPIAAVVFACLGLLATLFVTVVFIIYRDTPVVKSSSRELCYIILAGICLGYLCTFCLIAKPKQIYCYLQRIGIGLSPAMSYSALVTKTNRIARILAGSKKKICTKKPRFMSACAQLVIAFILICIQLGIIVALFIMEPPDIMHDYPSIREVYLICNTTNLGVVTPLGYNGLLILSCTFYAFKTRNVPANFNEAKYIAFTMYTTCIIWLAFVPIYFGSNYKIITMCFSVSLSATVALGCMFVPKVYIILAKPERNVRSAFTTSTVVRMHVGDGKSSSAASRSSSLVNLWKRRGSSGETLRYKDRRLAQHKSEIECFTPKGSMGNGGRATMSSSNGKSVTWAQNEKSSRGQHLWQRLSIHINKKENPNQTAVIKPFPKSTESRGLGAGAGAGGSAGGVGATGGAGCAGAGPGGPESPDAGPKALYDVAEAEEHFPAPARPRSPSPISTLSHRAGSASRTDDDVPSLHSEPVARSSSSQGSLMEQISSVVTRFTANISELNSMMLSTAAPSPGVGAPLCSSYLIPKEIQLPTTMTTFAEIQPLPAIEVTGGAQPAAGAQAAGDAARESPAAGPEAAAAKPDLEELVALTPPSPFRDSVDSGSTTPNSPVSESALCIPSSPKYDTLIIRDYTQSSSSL

T1 sequence (P08183 whole entry): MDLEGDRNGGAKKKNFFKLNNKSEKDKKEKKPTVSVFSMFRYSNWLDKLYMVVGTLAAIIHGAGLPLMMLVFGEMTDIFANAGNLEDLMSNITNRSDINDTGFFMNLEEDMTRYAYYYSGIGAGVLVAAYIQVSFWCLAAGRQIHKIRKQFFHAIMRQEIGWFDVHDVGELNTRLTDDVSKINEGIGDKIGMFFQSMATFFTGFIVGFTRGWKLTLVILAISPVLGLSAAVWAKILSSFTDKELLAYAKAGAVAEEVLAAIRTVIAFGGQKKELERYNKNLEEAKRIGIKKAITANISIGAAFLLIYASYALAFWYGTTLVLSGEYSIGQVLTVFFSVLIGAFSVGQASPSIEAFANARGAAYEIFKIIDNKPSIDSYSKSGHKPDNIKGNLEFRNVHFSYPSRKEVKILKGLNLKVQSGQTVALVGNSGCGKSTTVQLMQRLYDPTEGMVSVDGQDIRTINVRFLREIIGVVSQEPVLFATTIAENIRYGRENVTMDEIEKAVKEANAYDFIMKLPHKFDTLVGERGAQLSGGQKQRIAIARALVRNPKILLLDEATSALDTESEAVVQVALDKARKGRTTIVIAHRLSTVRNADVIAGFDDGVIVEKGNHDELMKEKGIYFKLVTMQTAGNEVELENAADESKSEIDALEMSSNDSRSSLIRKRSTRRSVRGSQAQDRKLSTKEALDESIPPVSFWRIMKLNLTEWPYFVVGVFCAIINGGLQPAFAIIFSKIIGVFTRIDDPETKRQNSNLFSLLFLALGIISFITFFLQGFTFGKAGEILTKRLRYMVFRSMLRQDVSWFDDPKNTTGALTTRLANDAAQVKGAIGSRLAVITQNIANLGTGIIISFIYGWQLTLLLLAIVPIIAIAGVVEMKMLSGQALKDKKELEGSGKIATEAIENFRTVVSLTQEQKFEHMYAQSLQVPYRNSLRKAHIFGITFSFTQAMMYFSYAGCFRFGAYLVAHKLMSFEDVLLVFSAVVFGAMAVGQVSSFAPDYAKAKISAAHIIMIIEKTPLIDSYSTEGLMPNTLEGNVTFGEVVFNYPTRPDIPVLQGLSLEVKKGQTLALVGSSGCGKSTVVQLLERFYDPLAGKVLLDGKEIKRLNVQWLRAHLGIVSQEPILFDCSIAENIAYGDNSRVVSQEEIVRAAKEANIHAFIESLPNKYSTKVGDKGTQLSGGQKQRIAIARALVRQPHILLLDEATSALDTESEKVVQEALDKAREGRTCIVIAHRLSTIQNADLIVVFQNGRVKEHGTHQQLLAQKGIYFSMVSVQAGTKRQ
Sequence of dog mGlu1 (A0A8I3NTE8 30-1195): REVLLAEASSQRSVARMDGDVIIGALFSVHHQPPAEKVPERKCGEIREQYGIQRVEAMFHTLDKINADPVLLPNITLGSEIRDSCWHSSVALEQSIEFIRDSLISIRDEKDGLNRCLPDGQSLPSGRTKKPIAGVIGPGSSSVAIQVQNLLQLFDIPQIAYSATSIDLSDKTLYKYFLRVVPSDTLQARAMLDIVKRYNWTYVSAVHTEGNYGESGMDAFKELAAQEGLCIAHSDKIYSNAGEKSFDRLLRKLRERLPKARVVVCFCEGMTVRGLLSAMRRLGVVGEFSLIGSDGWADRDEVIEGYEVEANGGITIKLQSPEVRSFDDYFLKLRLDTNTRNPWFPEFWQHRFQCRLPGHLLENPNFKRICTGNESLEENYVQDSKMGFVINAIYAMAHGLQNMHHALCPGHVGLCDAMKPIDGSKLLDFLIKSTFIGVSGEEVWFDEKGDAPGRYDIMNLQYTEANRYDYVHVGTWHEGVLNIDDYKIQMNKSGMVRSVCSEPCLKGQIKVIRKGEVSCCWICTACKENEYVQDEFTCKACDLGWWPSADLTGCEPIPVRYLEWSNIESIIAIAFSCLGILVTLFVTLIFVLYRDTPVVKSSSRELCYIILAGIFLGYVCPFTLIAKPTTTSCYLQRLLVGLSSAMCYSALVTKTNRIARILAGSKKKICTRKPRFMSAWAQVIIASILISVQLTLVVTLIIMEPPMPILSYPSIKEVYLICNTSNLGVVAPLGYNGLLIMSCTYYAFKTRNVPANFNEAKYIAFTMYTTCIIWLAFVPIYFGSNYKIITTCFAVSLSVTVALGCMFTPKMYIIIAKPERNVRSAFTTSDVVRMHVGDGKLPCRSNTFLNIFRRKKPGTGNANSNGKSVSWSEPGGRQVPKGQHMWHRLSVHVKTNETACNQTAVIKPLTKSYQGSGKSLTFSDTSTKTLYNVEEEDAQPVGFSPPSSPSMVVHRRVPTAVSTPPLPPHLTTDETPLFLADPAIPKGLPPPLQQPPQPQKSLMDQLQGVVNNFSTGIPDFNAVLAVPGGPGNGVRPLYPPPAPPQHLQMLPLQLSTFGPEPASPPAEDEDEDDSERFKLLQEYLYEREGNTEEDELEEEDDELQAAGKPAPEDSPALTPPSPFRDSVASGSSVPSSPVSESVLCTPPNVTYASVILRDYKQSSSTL

With Cn1cc(-c2cc(CNC(=O)c3cc(-c4ccco4)ccc3Cl)n(C)n2)cn1 [compound 4] as the molecule, how does the fraction unbound at 4 h, 5 µM [1] read?
The fraction unbound at 4 h, 5 µM was 0.063.

For Cn1nc(-c2ccnn2C)cc1CNC(=O)c1cc(-n2cccn2)ccc1Cl [compound 5], which fraction unbound at 4 h, 5 µM [1] is on record?
Its fraction unbound at 4 h, 5 µM is 0.143.

For Cc1nc2ccccc2cc1CNC(=O)c1cc(-n2cccn2)ccc1Cl [compound 6], which Papp (P-gp) is on record?
Its Papp is 39 ×10⁻⁶ cm/s.

What about the efflux ratio (P-gp) of the same molecule?
The efflux ratio was 0.5.

What about the fraction unbound at 4 h, 5 µM [1] of the same molecule?
Its fraction unbound at 4 h, 5 µM is 0.037.

Which fraction unbound at 4 h, 5 µM [1] does the source give for Cc1nc2c(F)cccc2cc1CNC(=O)c1cc(-n2cccn2)ccc1Cl [compound 7] here?
The fraction unbound at 4 h, 5 µM was 0.053.

With Cc1nc(C2CC2)ccc1CNC(=O)c1cc(-n2cccn2)ccc1Cl [compound 8] as the molecule, how does the EC50 (h and r mGlu2-4,6-8) read?
Its EC50 is > 10 µM.

What about the “effect on striatal DA release when coapplied with subthreshold DHPG” value (striatal DA release) of the same molecule?
The value was “robust inhibition of DA release”.

And the solubility ([2]; FASSGF, fassgf or other biorelevant, read-out: Solubility FASSGF)?
Its solubility is 572 µg/mL (≈ 1560 µM).

And the solubility ([2]; FASSIF, read-out: Solubility FASSIF)?
Its solubility is 23.6 µg/mL (≈ 64.3 µM).

What about the solubility kinetic (Kinetic solubility; pH 2.2, aqueous buffer, read-out: Kinetic solubility pH 2.2) of the same molecule?
Its solubility kinetic is > 100 µM.

What about the solubility kinetic (Kinetic solubility; pH 6.8, aqueous buffer, read-out: Kinetic solubility pH 6.8) of the same molecule?
Its solubility kinetic is < 1 µM.

And the “P-gp, MDCK-MDR1 ER” value (P-gp)?
The value was 0.93.

And the Papp (P-gp)?
Its Papp is 42 ×10⁻⁶ cm/s.

And the efflux ratio (P-gp)?
The efflux ratio was 0.93.

What about the fraction unbound at 4 h, 5 µM [1] of the same molecule?
Its fraction unbound at 4 h, 5 µM is 0.063.

And the fraction unbound at 4 h, 5 µM [3]?
The fraction unbound at 4 h, 5 µM was 0.099.

What about the fraction unbound at 4 h, 5 µM [4] of the same molecule?
The fraction unbound at 4 h, 5 µM was 0.46.

And the “adverse events in dogs” value [5]?
The value was “all dogs displayed dizziness, salivation, and uncoordinated movements”.

And the clearance ([5]; plasma, read-out: CLp (dog))?
The clearance was 10 mL/min/kg.

And the Vd ([5]; plasma, read-out: Vss (dog))?
The Vd was 4.6 L/kg.

What about the half-life ([5]; plasma, read-out: t1/2 (dog) (converted)) of the same molecule?
The half-life was 6.5 h.

What about the EC50 (dog mGlu1) of the same molecule?
Its EC50 is 0.093 µM.

What about the Emax (dog mGlu1; read-out: dog mGlu1 Glu Max) of the same molecule?
The Emax was 79%.

And the “mGlu5 Glu Max” value (h mGlu5)?
Its value is 72%.

What about the EC50 (h mGlu5; Table 1, unit inferred) of the same molecule?
The EC50 was 3.76 µM.
